Reference: paper PMC7708037, “Targeting OGG1 arrests cancer cell proliferation by inducing replication stress” (Nucleic Acids Research, 2020)

How the values were obtained:
[1] = tested on: primary blood cells (CD34+ cells, CD34- fraction from cord blood, PBMCs); experiment: Resazurin viability of primary blood cells; type: cell-based, human
Method: Cells were seeded in 96- or 384-well plates and incubated for 3 days for combination experiments or 5 days for single-drug exposure experiments. Resazurin (R7017, SigmaAldrich) was added to a final concentration of 0.01 mg/ml resazurin and fluorescence was measured at ex530/em590 after incubation for 2, 4 or 6 h. Curves were fitted using XLfit software (IDBS) or Prism 8.0 (Graphpad Software), and EC50 values were determined.
Peripheral blood mononuclear Cells (PBMC) were isolated from peripheral whole blood from controls using Histopaque®-1077 (Sigma-Aldrich, San Luis, MO, USA) following the manufacturer's instructions. Briefly, peripheral blood was collected in heparin and diluted with equal amount of PBS. Next, blood was centrifuged with Histopaque®-1077 at 400 × g for 30 min at room temperature and the PBMC layer was recovered. All steps were processed within 4 h after blood extraction.
Isolation of total CD34+ cells was performed from umbilical cord blood samples (CB) from healthy donors distributed from Centro de Transfusión de la Comunidad de Madrid. All samples were collected under written consent and institutional review board agreement. CD34+ cells was obtained from mononuclear cells were separated by fractionation in Ficoll-hypaque according to manufacturer's recommendations (GE Healthcare). […]

A3 cells = experiment: A3 cell numbers and viability; type: cell-based, human
Method: Figure 4. Anticancer properties overlap between OGG1 loss and OGG1 inhibitors. (A) Viability of T-cell acute […] leukemia cell lines treated for 5 days with the indicated doses TH5487. Data are average ±SD of independent experiments (A3, n = 5; Jurkat, n = 3; MOLT-4, n = 4; CCRF-CEM, n = 3). (B) Relative cell numbers and (C) viability (%) for A3 cells treated for 5 days with 10 μM TH5487. Data are average ±SD of six replicates from three independent experiments. (D) Induction of apoptosis in A3 cells treated for 72 h TH5487 and stained for Annexin V. Data are average ±SD of three independent experiments. (E) A3 cells transfected with shRNA targeting OGG1 were treated with doxycycline for 6 days and stained for Annexin V. Data are average ±SD of two independent experiments. (F) Scheme for recovery experiment in which A3 OGG1-shRNA cells or A3 cells were silenced or inhibited for 6 days with doxycycline (200 nM) or TH5487 (10 μM). […] Data are average ±SD of 2–6 technical replicates representative of two independent experiments (I). Scheme for off-target effect evaluation in which A3 OGG1-shRNA cells were exposed to doxycycline for six days and after that, cells were exposed to TH5487 (10 μM) for 48 h followed by measurements of cell numbers (J) and viability by trypan blue exclusion (K). Data are average ±SD of two technical replicates from four independent experiments. Statistical significance was determined using unpaired, two-sided t-tests (*P < 0.05, **P < 0.01, ***P < 0.001, ****P < 0.0001, ns, non-significant).

## O=C(Nc1ccc(I)cc1)N1CCC(n2c(=O)[nH]c3c(Br)cccc32)CC1 [TH5487]
[1]; CD34+ cells, resting and activated CD34- cells from umbilical cord blood, healthy donors
  Tolerance by hematopoietic primary cells: well tolerated
[1]; primary blood cells from healthy donors, activated or not, read-out: EC50, average over primary blood cells
  EC50: 35.1 ± 20 µM
A3 cells; A3 cells exposed for 6 days to 10 μM
  Recovery of proliferation after release into fresh medium: able to divide normally
A3 cells; A3 cells, 10 μM, after 72 h
  Cell viability: mild decrease in cell viability
A3 cells; A3 cells, 10 μM, up to 72 h
  Proliferation (relative cell numbers): slower proliferation
